Experimental data taken from article PMC6581720 (Frontiers in Microbiology, 2019).

Target: T1, SpoIVB (sporulation factor IV B protease) (Bacillus subtilis, UniProt P17896, S378A)
T1 construct: truncated SpoIVB (residues Thr75-Ser426), N-terminal 6 × His and mMBP fusion tags
Assay: microscale thermophoresis (MST), RED-NHS labelled protein
Assay type: binding

T1 sequence (P17896 75-426 S378A): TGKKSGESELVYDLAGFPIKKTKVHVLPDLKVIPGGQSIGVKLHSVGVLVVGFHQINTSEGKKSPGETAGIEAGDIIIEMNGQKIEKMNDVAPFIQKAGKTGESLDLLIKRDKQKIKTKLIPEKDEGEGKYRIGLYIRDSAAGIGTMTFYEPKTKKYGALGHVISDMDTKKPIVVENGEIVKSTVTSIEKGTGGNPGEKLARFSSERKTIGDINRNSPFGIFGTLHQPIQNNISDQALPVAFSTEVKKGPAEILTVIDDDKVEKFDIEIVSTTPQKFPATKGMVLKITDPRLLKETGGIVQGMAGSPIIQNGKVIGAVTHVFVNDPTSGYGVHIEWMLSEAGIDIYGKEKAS

N=C(N)c1ccccc1 [benzamidine]
Kd: 660 ± 28 µM
